Like-named read-outs stand apart in the source and are kept apart here.
Columns and labels:
[1] = Cytotoxicity in Hek293T (CellTiterGlo); format: cell-based; conditions: human, Hek293T cells, 24 h after compound addition, 5 nM-100 microM, read-out: Hek293T IC50 (cytotoxic activity)
Description: (§1) For examination of cytotoxicity in these cancer cell lines the commercial available CellTiterGlo® Reagent (Promega, USA) was used according to the manufactor. Compounds were applied to Hek293T (denoted (a)) or HepG2 (denoted (b)), cultured in Dulbecco's Modified Eagles Medium, supplemented with 10% fetal calf serum and 1% penicillin/streptomycin. Cells were grown in T75 flasks at 37° C., 5% CO2 and trypsinized when 60-80% confluent by adding 2 ml of 0.25% Trypsin-EDTA solution. Cells were then re-suspended into culture medium yielding approx. 4000 cells (a) or 4500 cells (b), suspended in 30 microl medium. 48 h after cell seeding, compounds were added to yield the desired final concentrations. 24 h after compound addition cytotoxicity was evaluated. For this purpose the media was removed and CellTiterGlo® was added according to the manufactors manual. In this assay the luciferase emission readout is directly correlated with the cellular amount of ATP, low luciferase emission thus is reflecting cytotoxicity of a compound.

[2] = tested on: Dld1 colon carcinoma cells; test: Antiproliferative activity against Dld1 colon carcinoma cells (nuclei count); format: cell-based, human; conditions: Homo sapiens, DLD-1; colon carcinoma cells, 5 nM-90 microM, nuclei count; read-out: Dld1 IC50
Description: (§2) For examination of cell line-specific cytotoxicity, compounds were applied to human colorectal cancer cells (HCT116, denoted (1); SW480, denoted (2); Dld-1, denoted (3)) and human fibroblasts (HS-68, denoted (4)), cultured in Mc Coy's ((1)) and Dulbecco's Modified Eagles Medium ((2)-(4)), supplemented with 10% ((1)-(3)) and 20% ((4)) fetal calf serum and 1% penicillin/streptomycin. Cells were grown in T75 flasks at 37° C., 5% CO2 and trypsinized when 60-80% confluent by adding 2 ml of 0.25% Trypsin-EDTA (ethylenediaminetetraacetic acid) solution. Cells were then re-suspended into culture medium yielding approx. 750 cells, suspended in 45 microl medium, were plated into each well of a black 384-well plate for fluorescence imaging experiments. 24-36 hr later 5 microl compound solution (100 microM compound dissolved in ultra pure water containing 1% DMSO (dimethylsulfoxide)), were added to achieve a final concentration of 10 microM and were incubated for at least 72 hr. Compound incubation was terminated by (a) fixation and (b) permeabilisation of cells, followed by (c) fluorescence labeling of cell nuclei for cytometric quantification or by immunocytochemistry for microscopic evaluation of cell morphology. […] Solutions were incubated for 15 (a,b) and 30 min (c) in the dark at room temperature. Cells were washed twice between each step with 30 microl PBS. The assay system was miniaturized and adapted to automated workflow using liquid-handling robotics.
(§3) Cell line-specific cytotoxicity was quantified by counting the number of Hoechst labeled nuclei per well of a 384-well plate using a plate cytometer. Data obtained with the cytometer was analysed using standard data analysis software.
(§4) The examination of the antiproliferative activity against human colon carcinoma cells Dld1, HCT116 and SW480 was carried out in analogy to the procedure carried out for HS68. The respective compound applied in increasing concentrations yielding final concentrations per well of 5 nM-90 microM.

Wnt pathway (Wnt1/Frzd8) = test: Wnt signaling pathway reporter gene assay (6xTCF-luciferase, Wnt1/Frizzled 8/LRP6 stimulated Hek293T cells); format: cell-based, mouse (Wnt1, human (LRP6); conditions: Homo sapiens, HEK-293T, Hek293T, 6xTCF-luciferase reporter, 24 h incubation, 5 nM-100 microM, read-out: Wnt1/Frzd8 IC50 (Wnt pathway inhibitory activity)
From the text: To screen for small-molecule modulators of the Wnt signaling pathway, a reporter gene based assay describing the modulation of the TCF4 transcription factor was used. […]

[3] = tested on: HCT116 colon carcinoma cells; test: Antiproliferative activity against HCT116 colon carcinoma cells (nuclei count); format: cell-based, human; conditions: Homo sapiens, HCT-116; colon carcinoma cells, 5 nM-90 microM, nuclei count; read-out: HCT116 IC50
Description: as §2, §3, §4

[4] = Cytotoxicity in HepG2 (CellTiterGlo); format: cell-based; conditions: human, HepG2 cells, 24 h after compound addition, 5 nM-100 microM, read-out: HepG2 IC50 (cytotoxic activity)
Description: as §1

[5] = tested on: human fibroblasts (HS-68); test: Cell line specific cytotoxicity, normal cells HS68 (nuclei count); format: cell-based; conditions: at least 72 hr incubation, Hoechst nuclei count, read-out: HS68 IC50 (influence on normal cells)
Description: as §2, §3
Identified hits were further evaluated by visual inspection of fluorescence micrographs obtained from imaging using a conventional fluorescence microscope.

[6] = tested on: SW480 colon carcinoma cells; test: Antiproliferative activity against SW480 colon carcinoma cells (nuclei count); format: cell-based; conditions: Homo sapiens, 5 nM-90 microM
Description: as §2, §3, §4

IC50 (Wnt pathway (Wnt1/Frzd8); 24 h) | SMILES | IC50 at 24 h [1] | IC50 [2] | IC50 (Wnt pathway (Wnt1/Frzd8)) | IC50 [3] | IC50 at 24 h [4] | IC50 [5] | IC50 [6]
– | N#CC1=C(N)Oc2c(ccc3ccccc23)C1c1cc(F)c(F)c(F)c1 (centres unmarked) [(7), 2-Amino-4-(3,4,5-trifluoro-phenyl)-4H-benzo[h]chromene-3-carbonitrile] | > 90000 nM | 474 nM | 316 nM | 922 nM | > 90000 nM | > 90000 nM | 2860 nM
86 nM | C=CCOc1c(Br)cc(C2C(C(=O)OCC)=C(N)Oc3c2ccc2ccccc32)cc1OC (centres unmarked) [(4), 4-(4-Allyloxy-3-bromo-5-methoxy-phenyl)-2-amino-4H-benzo[h]chromene-3-carboxylic acid ethyl ester] | > 90000 nM | 171 nM | – | 146 nM | > 90000 nM | 215 nM | 332 nM
